Consider eleven compounds from the OPERA property sets (Mansouri et al. 2018).

As a reminder, the logP is the decadic logarithm of the partition coefficient of the neutral form, usually between octanol and water. In turn, `CC(=O)NC(=O)Nc1ccccc1` registered a lipophilicity (logP) of 1.6.
Compound `CCNC(=O)NC(C)=O` came in with a logP of -0.01.
In turn, `Cc1cccc([N+](=O)[O-])c1C(=O)NC(=O)Nc1ccc(Cl)cc1` gave a logP of 3.75.
Turning to `CCNC(=O)NC(=O)c1ccccc1`, the logP came to 1.92.
Compound `O=C(NC(=O)c1c(F)cccc1F)Nc1ccc(F)cc1` yielded a lipophilicity (logP) of 3.2.
`CNC(=O)NC(C)=O`: the log partition coefficient (logP) was -0.7.
Take `O=C(NC(=O)c1ccccc1)Nc1ccccc1`: the logP amounted to 3.39.
Take `CNC(=O)NC(=O)c1ccccc1`: the log partition coefficient (logP) stood at 1.27.
`COc1ccccc1C(=O)NC(=O)Nc1ccc(Cl)cc1` came in with a log partition coefficient (logP) of 4.35.
Regarding `O=C(NC(=O)c1c(F)cccc1F)Nc1ccc(Cl)cc1`, the lipophilicity (logP) is 3.88.
The figure for `CNC(N)=O` is -1.4.
